Test results: patent publication US6379083B1, “Method for the remediation of soil contaminated with organic halide compounds” (Hazama Corporation, priority 1998, dated 2002)
≈ marks a conversion by molar mass, not a printed value. Where two headings read alike, the source gives them in different places.

Assay: Solubility of volatile organic halide in carbonic acid aqueous solution (Example 3)
Format: physicochemical
Conditions: for solubility at 24 h: 20.7 °C, thermodynamic from solid, read-out: Detected amount of trichloroethylene (saturated solubility)
Experimental: Using a carbonic acid aqueous solution having carbonated ion-concentration of 7,700 mg/L (i.e., 7,700 ppm) and natural water (trade name: Eapin; carbonated ion-concentration of 0 mg/L), four kinds of carbonic acid aqueous solutions (i.e., carbonated ion-concentration: 340 mg/L, 920 mg/L, 1700 mg/L and 7,700 mg/L) were prepared.
Using a syringe, 0.14 g of excess trichloroethylene was added to the water or solution, and each linked part in the Glass-Vials was sealed by the use of Teflon tape. The mixture was stirred for 30 minutes using a magnetic stirrer, and allowed to stand for 24 hours. Thereafter, a supernatant fraction was quickly collected and extracted to give trichloroethylene. These procedures were performed at temperature of 20.7° C.
As for the above natural water and carbonic acid aqueous solutions before the injection into the glass-bialbin, their carbonated ion-concentrations were measured by means of neutralization titration. The titration was conducted according to strontium chloride/monobasic acid-base titration described in JIS K 0101 25.
To the supernatant fraction obtained above, n-hexane for test of remaining agriculture chemical was added in the same amount as the fraction, and vigorously stirred to give an n-hexane layer. The layer was analyzed by a gas chromatography in the following conditions:
Analyzer: GC-17A type available from Shimadzu Corp.
Column: AQUATAC 75 m×0.53 mmφ
Column Temperature: 210° C.

ClC=C(Cl)Cl [trichloroethylene]
solubility at 24 h (aqueous buffer, Carbonated ion concentration 340 mg/L): 780 µg/mL (≈ 5.94 mM) | solubility at 24 h (aqueous buffer, Carbonated ion concentration 920 mg/L): 1000 µg/mL (≈ 7.61 mM) | solubility at 24 h (aqueous buffer, Carbonated ion concentration 7700 mg/L): 1300 µg/mL (≈ 9.89 mM) | Detected amount of trichloroethylene (saturated solubility) (Carbonated ion concentration 1700 mg/L, 20.7° C.): 1100 µg/mL | solubility at 24 h (natural water (Eapin; carbonated ion concentration 0 mg/L), water, Carbonated ion concentration 0 mg/L (natural water)): 750 µg/mL (≈ 5.71 mM)
